Source: ChEMBL document CHEMBL3627631, “Inactivation of protein tyrosine phosphatases by dietary isothiocyanates” (Bioorg Med Chem Lett, 2015)
Activity calls are given as the source filed them. The calls are words filed in the database; no cut-off is given here.

Key:
[1] = target: T1, Tyrosine-protein phosphatase non-receptor type 1 (Homo sapiens) (UniProt P18031); assay: Reversible inhibition of recombinant human PTP1B catalytic domain (1 to 322 amino acid residues) in Tris buffer assessed as inactivation constant kf
T1 sequence (whole entry): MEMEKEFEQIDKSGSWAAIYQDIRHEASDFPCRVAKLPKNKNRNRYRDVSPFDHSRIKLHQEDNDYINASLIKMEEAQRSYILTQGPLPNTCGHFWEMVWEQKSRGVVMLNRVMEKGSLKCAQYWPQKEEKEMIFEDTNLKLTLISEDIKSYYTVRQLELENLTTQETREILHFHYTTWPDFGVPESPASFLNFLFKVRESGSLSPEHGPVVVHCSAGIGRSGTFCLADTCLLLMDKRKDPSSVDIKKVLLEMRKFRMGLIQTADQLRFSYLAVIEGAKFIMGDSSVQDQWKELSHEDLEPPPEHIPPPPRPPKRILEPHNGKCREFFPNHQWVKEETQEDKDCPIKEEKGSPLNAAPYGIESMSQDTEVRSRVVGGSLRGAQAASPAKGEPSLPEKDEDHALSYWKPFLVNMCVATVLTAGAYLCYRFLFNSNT

[2] = target: T2, Tyrosine-protein phosphatase non-receptor type 11 (Homo sapiens) (UniProt Q06124); assay: Inhibition of recombinant human SHP2 catalytic domain (246 to 527 amino acid residues) in 3,3-dimethylglutarate buffer using pNPP as substrate assessed as apparent second order rate constant after 10 mins
T2 sequence (whole entry): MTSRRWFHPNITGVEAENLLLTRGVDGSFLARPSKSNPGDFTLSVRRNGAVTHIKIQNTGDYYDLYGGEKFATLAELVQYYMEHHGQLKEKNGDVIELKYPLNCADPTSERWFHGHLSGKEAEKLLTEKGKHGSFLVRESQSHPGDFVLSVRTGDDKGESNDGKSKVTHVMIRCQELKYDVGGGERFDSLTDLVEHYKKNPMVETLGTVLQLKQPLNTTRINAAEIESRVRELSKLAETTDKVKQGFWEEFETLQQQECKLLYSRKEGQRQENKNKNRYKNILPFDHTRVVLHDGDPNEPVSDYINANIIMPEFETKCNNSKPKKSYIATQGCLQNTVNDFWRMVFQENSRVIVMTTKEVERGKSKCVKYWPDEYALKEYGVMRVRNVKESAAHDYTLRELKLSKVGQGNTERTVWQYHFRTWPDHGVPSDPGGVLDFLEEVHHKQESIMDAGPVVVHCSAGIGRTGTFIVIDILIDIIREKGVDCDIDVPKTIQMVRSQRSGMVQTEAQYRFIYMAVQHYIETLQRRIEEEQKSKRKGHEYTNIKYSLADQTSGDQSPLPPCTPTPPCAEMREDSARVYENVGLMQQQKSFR

[3] = target: T1, Tyrosine-protein phosphatase non-receptor type 1 (Homo sapiens); assay: Reversible inhibition of recombinant human PTP1B catalytic domain (1 to 322 amino acid residues) in 3,3-dimethylglutarate buffer assessed as inactivation constant kf
[4] = target: T1, Tyrosine-protein phosphatase non-receptor type 1 (Homo sapiens); assay: Inhibition of recombinant human PTP1B catalytic domain (1 to 322 amino acid residues) using pNPP as substrate assessed as p-nitrophenolate release at 200 uM after 10 mins by spectrophotometric analysis in presence of reversible, site-directed inhibitor phosphate, arsenate
[5] = target: T1, Tyrosine-protein phosphatase non-receptor type 1 (Homo sapiens); assay: Inhibition of recombinant human PTP1B catalytic domain (1 to 322 amino acid residues) using pNPP as substrate assessed as p-nitrophenolate release after 10 mins by spectrophotometric analysis in presence of catalase, superoxide dismutase and mannitol
[6] = target: T2, Tyrosine-protein phosphatase non-receptor type 11 (Homo sapiens); assay: Inhibition of recombinant human SHP2 catalytic domain (246 to 527 amino acid residues) in Tris buffer using pNPP as substrate assessed as apparent second order rate constant after 10 mins
[7] = target: T2, Tyrosine-protein phosphatase non-receptor type 11 (Homo sapiens); assay: Inhibition of recombinant human SHP2 catalytic domain (246 to 527 amino acid residues) in 3,3-dimethylglutarate buffer using pNPP as substrate assessed as p-nitrophenolate release by spectrophotometric analysis in presence of reversible, site-directed inhibitor phosphate, arsenate
[8] = target: T1, Tyrosine-protein phosphatase non-receptor type 1 (Homo sapiens); assay: Reversible inhibition of recombinant human PTP1B catalytic domain (1 to 322 amino acid residues) measured for 3 hrs by gel filtration assay
[9] = target: T1, Tyrosine-protein phosphatase non-receptor type 1 (Homo sapiens); assay: Inhibition of recombinant human PTP1B catalytic domain (1 to 322 amino acid residues) using pNPP as substrate assessed as p-nitrophenolate release at 500 uM incubated with first aliquot of enzyme for 2000 secs followed by addition of second aliquot of enzyme measured for 1500 secs by spectrophotometric analysis
[10] = target: T1, Tyrosine-protein phosphatase non-receptor type 1 (Homo sapiens); assay: Reversible inhibition of recombinant human PTP1B catalytic domain (1 to 322 amino acid residues) in Tris buffer assessed as inactivation constant kr
[11] = Chemical stability of the compound in Bis-Tris and Tris buffer containing DTPA, sodium acetate, Tween 80 at 500 uM at pH 7.0 at 30 degC incubated for 2.5 hrs prior to addition of PTP1B; assay type: physicochemical; details: pH 7, 2.5 h
[12] = Chemical stability of the compound in 3,3-dimethylglutarate buffer containing DTPA, sodium acetate, Tween 80 at 500 uM at pH 7.0 at 30 degC incubated for 2.5 hrs prior to addition of PTP1B; assay type: physicochemical; details: pH 7, 2.5 h
[13] = target: T1, Tyrosine-protein phosphatase non-receptor type 1 (Homo sapiens); assay: Reversible inhibition of recombinant human PTP1B catalytic domain (1 to 322 amino acid residues) in 3,3-dimethylglutarate buffer assessed as inactivation constant kr

| Compound | K [1] | Kapp [2] | K [3] | inhibition [4] | inhibition [5] | Kapp [6] | inhibition [7] | inhibition [8] | inhibition [9] | K [10] | Stability [11] | Stability [12] | K [13] |
| --- | --- | --- | --- | --- | --- | --- | --- | --- | --- | --- | --- | --- | --- |
| C=CCN=C=S [ALLYL ISOTHIOCYANATE] | 2.3 M⁻¹ s⁻¹ | 9 M⁻¹ s⁻¹ | 2.7 M⁻¹ s⁻¹ | inactive | Active | 16 M⁻¹ s⁻¹ | inactive | Active | Active | 2.3 ×10⁻⁴ /s | Unstable | Stable | 8.3 ×10⁻⁵ /s |
| C[S+]([O-])CCCCN=C=S (stereo not drawn) |  | 3.7 M⁻¹ s⁻¹ | 2.4 M⁻¹ s⁻¹ |  |  | 3.5 M⁻¹ s⁻¹ | inactive |  |  |  |  |  | 1.4 ×10⁻⁴ /s |
